Results published in patent publication EP0932613B1, “BLOCKING EXPRESSION OF VIRULENCE FACTORS IN S. AUREUS” (NEW YORK UNIVERSITY, priority 1996, dated 2005).
Where a SMILES comes first, the peptide text is derived from it. Bridges are numbered along the chain shown (N, C = ends).

What was measured:
RNAIII transcription [1] = assay: Effect of S. lugdunensis pheromone on RNAIII transcription of various S. aureus strains (Northern blot); type: cell-based; settings: 37°C for 30 minutes; strains grown to 60 Klett units for inhibition assays; Figures 4A and 4B
Procedure: The purified S. lugdunensis pheromone was then analyzed for its ability activate and inhibit RNAIII transcription of various S. aureus strains. S. aureus strains were grown to 30 Klett units (for activation assays) and to 60 Klett units (for inhibition assays). The purified S . lugdunensis pheromone was added and the mixtures were incubated at 37°C for 30 minutes. Whole cell lysates were prepared from these cultures and analyzed by Northern blot hybridization using a RN6390B RNAIII-specific probe.

agr locus = settings: PNAS 92:12055-12059 (1995); cited from earlier work
RNAIII transcription [2] = assay: RNAIII transcription activation/inhibition assay (Ji et al. 1995), strain RN6390B; type: cell-based; settings: purified peptide; S. aureus strain RN6390B; Figure 3
Procedure: (§1) The purified activator peptide was then analyzed for its ability activate and inhibit RNAIII transcription of S. aureus strains RN6390B, RN6607 and RN8463, as described in Ji, G., et al. PNAS USA 92:12055-12059 (1995).
(§2) The purified peptide were then analyzed for their ability activate and inhibit RNAIII transcription of S. aureus strains RN6390B, RN6607 and RN8463, as described in Ji, G., et al. PNAS USA 92:12055-12059 (1995).

RNAIII transcription [3] = assay: RNAIII transcription activation/inhibition assay (Ji et al. 1995), strain RN8463; type: cell-based; settings: purified peptide; S. aureus strain RN8463; Figure 3
Procedure: as §1, §2

RNAIII transcription [4] = assay: RNAIII transcription activation/inhibition assay (Ji et al. 1995), strain RN6607; type: cell-based; settings: purified peptide; S. aureus strain RN6607; Figure 3
Procedure: as §1, §2

## CC[C@H](C)[C@H](NC(=O)[C@@H](N)CC(=O)O)C(=O)N[C@H]1CSC(=O)[C@H](Cc2ccccc2)NC(=O)[C@H](Cc2ccc(O)cc2)NC(=O)[C@H](C)NC(=O)[C@H](CC(N)=O)NC1=O [S. lugdunensis pheromone, Asp-Ile-Cys-Asn-Ala-Tyr-Phe] (H-DICNAYF; thioester 3-C)
RNAIII transcription [1]
  S. aureus strains tested in which the agr response is inhibited: 5 of 6

## CC[C@H](C)[C@@H]1NC(=O)[C@H](Cc2ccccc2)NC(=O)[C@H](CC(=O)O)NC(=O)[C@@H](NC(=O)[C@@H](NC(=O)[C@H](CO)NC(=O)[C@@H](N)Cc2ccc(O)cc2)[C@@H](C)O)CSC(=O)[C@H](CCSC)NC1=O [activator peptide, Tyr-Ser-Thr-Cys-Asp-Phe-Ile-Met] (H-YSTCDFIM; thioester 4-C)
Agr locus
  expression of the agr locus: activate
RNAIII transcription [2]
  effect on RNAIII transcription: activator effect
RNAIII transcription [3]
  effect on RNAIII transcription: inhibitor effect
RNAIII transcription [4]
  effect on RNAIII transcription: inhibitor effect

## CC[C@H](C)[C@H](NC(=O)[C@@H](N)Cc1ccc(O)cc1)C(=O)N[C@@H](CC(N)=O)C(=O)N[C@H]1CSC(=O)[C@H](CC(C)C)NC(=O)[C@H](CC(C)C)NC(=O)[C@H](Cc2ccccc2)NC(=O)[C@H](CC(=O)O)NC1=O [peptide from RN8463, Tyr-Ile-Asn-Cys-Asp-Phe-Leu-Leu] (H-YINCDFLL; thioester 4-C)
RNAIII transcription [2]
  effect on RNAIII transcription: inhibitor effect
RNAIII transcription [3]
  effect on RNAIII transcription: activator effect
RNAIII transcription [4]
  effect on RNAIII transcription: inhibitor effect

## CC(C)C[C@@H]1NC(=O)[C@H](CO)NC(=O)[C@H](CO)NC(=O)[C@@H](NC(=O)[C@H](C)NC(=O)[C@H](CC(N)=O)NC(=O)[C@@H](NC(=O)CN)C(C)C)CSC(=O)[C@H](Cc2ccccc2)NC1=O [peptide from RN6607, Gly-Val-Asn-Ala-Cys-Ser-Ser-Leu-Phe] (H-GVNACSSLF; thioester 5-C)
RNAIII transcription [2]
  effect on RNAIII transcription: inhibitor effect
RNAIII transcription [3]
  effect on RNAIII transcription: inhibitor effect
RNAIII transcription [4]
  effect on RNAIII transcription: activator effect
